How the values were obtained:
PI3K β = molecular target: T1, PI3K β (Homo sapiens, UniProt P42338); experiment: In vitro PI3 kinase enzyme assay (beta), ATP loss, bioluminescence; type: biochemical; conditions: read-out: PI3Kβ ATP loss IC50;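 note: purified p110β/p85 heterodimer with PtdIns(4,5)P2 as acceptor, incubated at room temperature, leftover ATP read by luminescence, inhibition scaled to compound-free wells with and without enzyme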
T1 construct: Full length p110 subunits of PI3K α, β and δ, N-terminally labeled with polyHis tag; polyHis (N); made in house; host or cells: Sf9 insect cells (baculovirus)

PI3K α = molecular target: T2, PI3K α (Homo sapiens, UniProt P42336); experiment: In vitro PI3 kinase enzyme assay (alpha), ATP loss, bioluminescence; type: biochemical; conditions: read-out: PI3Kα ATP loss IC50;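 note: purified p110α/p85 heterodimer acting on PtdIns(4,5)P2 at room temperature, remaining ATP read by luminescence, inhibition scaled between compound-free wells with and without enzyme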
T2 construct: Full length p110 subunits of PI3K α, β and δ, N-terminally labeled with polyHis tag; polyHis (N); made in house; host or cells: Sf9 insect cells (baculovirus)
Method: Full length p110 subunits of PI3K α, β and δ, N-terminally labeled with polyHis tag, were co-expressed with p85 in baculovirus expression vectors in sf9 insect cells. P110/p85 heterodimers were purified by sequential Ni-NTA, Q-HP, and Superdex-100 chromatography. Purified α, β and δ isozymes were stored at −20° C. in 20 mM Tris, pH 8, 0.2M NaCl, 50% glycerol, 5 mM DTT, 2 mM Na cholate.
PI3K enzyme assays (alpha, beta, delta and gamma) were performed in 25 mL with the above final concentrations of components in white polypropylene plates (Costar catalogue #3355). Phosphatidyl inositol phosphoacceptor, PtdIns(4,5)P2 (eg. P4508) was obtained from Echelon Biosciences. The ATPase activity of the alpha and gamma isozymes was not greatly stimulated by PtdIns(4,5)P2 under these conditions and was therefore omitted from the assay of these isozymes. Test compounds were dissolved in DMSO and diluted with three-fold serial dilutions. The compound in DMSO (1 μL) was added per test well, and the inhibition relative to reactions containing no compound, with and without enzyme was determined. After assay incubation at RT, the reaction was stopped and residual ATP determined by addition of an equal volume of a commercial ATP bioluminescence kit (Perkin Elmer EasyLite) according to the manufacturer's instructions, and detected using an Analyst GT luminometer.

[1] = test system: phosphorylation of Serine 473 in Akt, HCT 116 human colon carcinoma cells; experiment: Cell-based phospho-AKT Ser473 assay (MSD sandwich immunoassay, IGF-1 stimulated); conditions: Homo sapiens, HCT-116, HCT 116 cells; read-out: HCT 116 pAKT IC50
Method in brief: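 Akt Ser473 phosphorylation was measured by MSD electrochemiluminescent sandwich immunoassay in lysates of HCT116 cells (16,000 cells/well). Cells received a compound dilution series for 2 h at 37 °C before a 15 min IGF-1 (100 ng/ml) stimulus, with IC50 calculated from the dose-response.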

T1 sequence (P42338 whole entry): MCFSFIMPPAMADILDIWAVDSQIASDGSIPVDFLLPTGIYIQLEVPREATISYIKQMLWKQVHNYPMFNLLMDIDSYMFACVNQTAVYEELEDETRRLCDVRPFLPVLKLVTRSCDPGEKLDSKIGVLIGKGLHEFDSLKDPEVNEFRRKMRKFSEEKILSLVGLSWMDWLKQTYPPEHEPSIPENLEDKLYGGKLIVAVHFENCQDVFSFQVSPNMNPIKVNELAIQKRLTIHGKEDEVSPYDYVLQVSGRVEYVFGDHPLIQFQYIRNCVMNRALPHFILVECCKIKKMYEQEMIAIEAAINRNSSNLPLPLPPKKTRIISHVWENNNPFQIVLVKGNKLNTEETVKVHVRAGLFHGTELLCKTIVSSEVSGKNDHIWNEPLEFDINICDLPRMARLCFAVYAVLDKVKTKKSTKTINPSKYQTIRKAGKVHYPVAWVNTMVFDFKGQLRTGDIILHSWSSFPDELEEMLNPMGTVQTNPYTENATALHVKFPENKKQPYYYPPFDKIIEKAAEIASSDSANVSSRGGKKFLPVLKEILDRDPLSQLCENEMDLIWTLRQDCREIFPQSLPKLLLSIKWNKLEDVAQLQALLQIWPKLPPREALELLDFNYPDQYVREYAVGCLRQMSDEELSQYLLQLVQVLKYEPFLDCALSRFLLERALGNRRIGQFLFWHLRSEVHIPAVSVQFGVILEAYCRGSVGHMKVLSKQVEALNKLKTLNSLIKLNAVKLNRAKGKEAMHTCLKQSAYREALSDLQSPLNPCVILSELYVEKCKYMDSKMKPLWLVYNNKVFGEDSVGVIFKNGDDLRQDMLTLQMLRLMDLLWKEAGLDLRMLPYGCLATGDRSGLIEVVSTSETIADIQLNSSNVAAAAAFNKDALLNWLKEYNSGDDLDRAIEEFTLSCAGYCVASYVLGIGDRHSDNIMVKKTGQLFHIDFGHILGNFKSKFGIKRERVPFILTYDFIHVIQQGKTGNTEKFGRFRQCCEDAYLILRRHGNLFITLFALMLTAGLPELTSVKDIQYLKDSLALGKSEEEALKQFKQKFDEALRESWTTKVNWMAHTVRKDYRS
T1 sequence (P27986 whole entry partner): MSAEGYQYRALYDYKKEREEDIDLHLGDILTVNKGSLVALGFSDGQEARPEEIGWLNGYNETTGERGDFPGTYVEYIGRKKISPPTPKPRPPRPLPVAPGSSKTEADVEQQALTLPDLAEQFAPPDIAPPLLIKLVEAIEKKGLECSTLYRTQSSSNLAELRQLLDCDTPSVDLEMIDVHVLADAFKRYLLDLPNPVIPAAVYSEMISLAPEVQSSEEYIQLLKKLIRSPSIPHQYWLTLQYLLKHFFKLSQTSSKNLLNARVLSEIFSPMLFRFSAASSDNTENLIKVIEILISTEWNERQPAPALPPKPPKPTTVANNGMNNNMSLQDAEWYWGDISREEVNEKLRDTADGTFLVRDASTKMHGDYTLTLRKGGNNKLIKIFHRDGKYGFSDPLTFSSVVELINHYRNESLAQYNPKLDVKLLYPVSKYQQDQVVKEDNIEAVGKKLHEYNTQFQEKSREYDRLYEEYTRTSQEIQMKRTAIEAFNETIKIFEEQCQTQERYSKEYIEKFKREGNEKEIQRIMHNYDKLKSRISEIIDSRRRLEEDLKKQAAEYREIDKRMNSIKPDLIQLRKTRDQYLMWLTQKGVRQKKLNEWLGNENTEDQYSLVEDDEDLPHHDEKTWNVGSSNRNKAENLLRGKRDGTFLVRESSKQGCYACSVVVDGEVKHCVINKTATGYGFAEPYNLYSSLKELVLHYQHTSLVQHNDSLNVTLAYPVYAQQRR
T2 sequence (P42336 whole entry, species assumed): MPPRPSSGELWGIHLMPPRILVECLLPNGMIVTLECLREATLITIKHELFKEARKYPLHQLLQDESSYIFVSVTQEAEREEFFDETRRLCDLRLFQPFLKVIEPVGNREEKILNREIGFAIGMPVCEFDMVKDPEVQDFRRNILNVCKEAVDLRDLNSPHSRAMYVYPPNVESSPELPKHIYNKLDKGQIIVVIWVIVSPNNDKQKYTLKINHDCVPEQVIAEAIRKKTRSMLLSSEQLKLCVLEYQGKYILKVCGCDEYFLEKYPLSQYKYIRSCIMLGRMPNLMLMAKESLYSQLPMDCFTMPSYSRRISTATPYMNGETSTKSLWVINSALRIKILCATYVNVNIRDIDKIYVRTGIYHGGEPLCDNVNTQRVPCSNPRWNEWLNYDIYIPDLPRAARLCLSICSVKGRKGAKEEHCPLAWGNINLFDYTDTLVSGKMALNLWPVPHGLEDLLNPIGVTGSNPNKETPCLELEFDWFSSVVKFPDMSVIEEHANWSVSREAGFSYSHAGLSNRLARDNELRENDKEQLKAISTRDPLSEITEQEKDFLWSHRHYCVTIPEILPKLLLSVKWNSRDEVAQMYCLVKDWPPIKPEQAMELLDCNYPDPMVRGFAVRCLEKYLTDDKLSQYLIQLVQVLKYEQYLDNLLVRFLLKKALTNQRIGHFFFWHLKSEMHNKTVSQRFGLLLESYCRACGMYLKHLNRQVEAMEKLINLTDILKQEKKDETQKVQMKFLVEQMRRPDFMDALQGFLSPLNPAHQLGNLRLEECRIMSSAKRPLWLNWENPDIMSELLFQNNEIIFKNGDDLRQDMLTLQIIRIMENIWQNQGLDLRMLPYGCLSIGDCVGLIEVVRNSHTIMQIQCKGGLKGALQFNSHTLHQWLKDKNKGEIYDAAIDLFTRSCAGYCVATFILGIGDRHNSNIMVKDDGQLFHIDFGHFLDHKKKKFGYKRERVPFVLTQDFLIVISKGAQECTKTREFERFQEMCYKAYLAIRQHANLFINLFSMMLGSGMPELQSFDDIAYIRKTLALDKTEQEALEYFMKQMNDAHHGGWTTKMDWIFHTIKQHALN
T2 sequence (P27986 whole entry partner, species assumed): as the sequence (P27986 whole entry partner) above

SMILES	IC50 (PI3K β) [nM]	IC50 (PI3K α) [nM]	IC50 [1] [nM]
CN(C)CC(=O)Nc1nc2ccc(-c3cnc(Cl)c(N(C)C)c3)cc2s1 [Example 275, N-(6-(6-Chloro-5-(dimethylamino)pyridin-3-yl)benzo[d]thiazol-2-yl)-2-(dimethylamino)acetamide]	2900	311	616
CC(=O)Nc1nc2ccc(-c3cncc(N(C)S(=O)(=O)c4ccc(C(C)(C)C)cc4)c3)cc2s1 [Example 223, N-(6-(5-(4-tert-butyl-N-methylphenylsulfonamido)pyridin-3-yl)benzo[d]thiazol-2-yl)acetamide]	3820	53.5	417
CC(=O)Nc1nc2ccc(-c3ccnc(Sc4ccc(F)cc4)n3)cc2s1 [Example 26, N-(6-(2-((4-fluorophenyl)sulfanyl)-4-pyrimidinyl)-1,3-benzothiazol-2-yl)acetamide]	407	122	1020
CC(=O)Nc1nc2ccc(-c3cnc(C)c(NS(=O)(=O)c4ccccc4F)c3)cc2s1 [Example 112, N-(6-(5-(((2-fluorophenyl)sulfonyl)amino)-6-methyl-3-pyridinyl)-1,3-benzothiazol-2-yl)acetamide]	9.1	5.5	16.9

Reference: patent US7928140B2, “Benzothiazole PI3 kinase modulators for cancer treatment” (Amgen Inc., priority 2007, dated 2011)
